The series can be described thus: Long-term stability testing at room temperature storage conditions. The format is physicochemical. As for the experimental part: Stability testing: To access its ability to maintain a desired chemical integrity, the stability of anhydrous crystalline polymorph of S-equol was evaluated for a period representative of the shelf-life of a pharmaceutical formulation. Anhydrous crystalline polymorph of S-equol was maintained at room temperature storage conditions, and evaluated for purity and water content.

Consider one compound from patent US9914718B2, “Anhydrous crystalline form of S-equol” (Ausio Pharmaceuticals, LLC, priority 2014, dated 2018).

The structures appear in SMILES notation.

For the compound `Oc1ccc([C@H]2COc3cc(O)ccc3C2)cc1` [anhydrous crystalline S-equol, S-equol], the Appearance entry reads like this: (0 days) “white to brown”; (626 days) “white to brown”; (867 days) “white to brown”. In addition, the Purity is, setting by setting: (0 days) 100% HPLC area %; (626 days) 100% HPLC area %; (867 days) 100% HPLC area %. In addition, the “Water Content” value is listed as below 0.1 g/100 g (0 days), 0.05 g/100 g (626 days) and 0.05 g/100 g (867 days).
